Measurements published in publication PMC4842970, “Bioactivity Focus of α-Cyano-4-hydroxycinnamic acid (CHCA) Leads to Effective Multifunctional Aldose Reductase Inhibitors” (Scientific Reports, 2016).
Like-named read-outs stand apart in the source and are kept apart here.

Tests used:
[1] = target: T1, human ALR2 (Homo sapiens, UniProt P15121); experiment: ALR2 inhibition (in vitro reduction of D,L-glyceraldehyde); type: biochemical
T1 construct: purchased WAKO Pure Chemical Industries, Ltd. (Japan); host or cells: baculovirus-insect cell expression system
Experimental: Human ALR2 was purchased from WAKO Pure Chemical Industries, Ltd. (Japan), which was purified from the culture medium of baculovirus-insect cell expression system. […] ALR2 inhibition was determined spectrophotometrically according to the procedure described previously.

[2] = ORACFL radical absorbance capacity assay
Text: With the CHCA scaffold, we hypothesized that 5a–j should have antioxidant activity. Therefore, a radical absorbance capacity assay (ORACFL)[41] was employed to assess their capacities. This method is based on the inhibition of peroxyl-radical-induced oxidation initiated by thermal decomposition of azo-compounds, in this case 2,2′-azo-bis (2-amidinopropane) dihydrochloride (AAPH). Trolox (6-hydroxy-2,5,7,8-tetramethylchroman-2-carboxylic acid) was used as a standard reference. Data is expressed as micromoles of Trolox equivalents (TE) per […] of sample (μmol TE/ml or U/ml).
Antioxidant capacity was determined according to the procedure described previously.

[3] = human ALR2, D,L-glyceraldehyde as substrate, read-out: IC50 (ALR2 inhibition)

Row | Compound | IC50 [1, 3] [nM] | melting point [°C] | ORAC ([2]; 3.125 μg/ml) [U/ml] | ORAC ([2]; 6.25 μg/ml) [U/ml] | ORAC ([2]; 12.5 μg/ml) [U/ml] | IC50 [1] [nM]
1 | CC(=O)N1CCC[C@@H]1C(=O)NCCNC(=O)/C(C#N)=C/c1ccc(O)cc1 [Compound 5b, (R,E) -1-acetyl - N - (2-(2-cyano-3-(4-hydroxyphenyl)acrylamido)ethyl)pyrroli-dine-2-carboxamide] | 136 ± 2.4 |  | 47.1 ± 2.4 | 44.1 ± 2.5 | 42.9 ± 3.3 | 
2 | CC(C)(C)C(=O)N[C@H](COCc1ccccc1)C(=O)NCCCNC(=O)/C(C#N)=C/c1ccc(O)cc1 [Compound 5j, (R,E) - N - (3-(2-pivalamido-3-(benzyloxy)propanamido)propyl)-2-cyano-3-(4-hydroxyphenyl)acrylamide] | 247 ± 4.5 |  | 38.6 ± 1.9 | 35.3 ± 1.7 | 30.6 ± 2.2 | 
3 | CC(C)(C)C(=O)N[C@@H](COCc1ccccc1)C(=O)NCCCNC(=O)/C(C#N)=C/c1ccc(O)cc1 [Compound 5i, (S,E) - N - (3-(2-pivalamido-3-(benzyloxy)propanamido)propyl)-2-cyano-3-(4-hydroxyphenyl)acrylamide] | 221 ± 3.9 |  | 36.4 ± 3.5 | 35.6 ± 3.9 | 35.3 ± 2.1 | 
4 | CC(=O)N1CCC[C@H]1C(=O)NCCNC(=O)/C(C#N)=C/c1ccc(O)cc1 [Compound 5a, (S,E) - 1 - acetyl -N-(2-(2-cyano-3-(4-hydroxyphenyl)acrylamido)ethyl)pyrroli-dine-2-carboxamide] | 137 ± 2.9 |  | 57.0 ± 2.3 | 52.4 ± 2.1 | 49.8 ± 1.7 | 
5 | N#CC(=Cc1ccc(O)cc1)C(=O)O [CHCA, α-cyano-4-hydroxycinnamic acid] |  |  | 52.3 ± 3.1 | 51.2 ± 1.1 | 48.8 ± 1.3 | 133 ± 1.8
6 | Cc1c(C)c2c(c(C)c1O)CCC(C)(C(=O)O)O2 (centres unmarked) [Trolox, 6-hydroxy-2,5,7,8-tetramethylchroman-2-carboxylic acid, reference compound] |  |  | 95.3 ± 3.7 | 92.8 ± 2.7 | 85.2 ± 4.3 | 
7 | O=c1c2cc(O)c(O)cc2oc2cc(O)c([C@@H]3O[C@H](CO)[C@@H](O)[C@H](O)[C@H]3O)c(O)c12 [Mangiferin, reference compound] | 138 ± 2.2 |  | 75.3 ± 0.4 | 74.8 ± 0.8 | 73.2 ± 7.2 | 

Continued, in another order:

Row | IC50 [1, 3] [nM] | melting point [°C] | Compound | ORAC ([2]; 3.125 μg/ml) [U/ml] | ORAC ([2]; 6.25 μg/ml) [U/ml] | ORAC ([2]; 12.5 μg/ml) [U/ml] | IC50 [1] [nM]
8 | 99.8 ± 2 |  | CC(=O)N[C@@H](COCc1ccccc1)C(=O)NCCCNC(=O)/C(C#N)=C/c1ccc(O)cc1 [Compound 5e, (S,E) – N - (3-(2-acetamido-3-(benzyloxy)propanamido)propyl)-2-cyano-3-(4-hydroxyphenyl)acrylamide] | 65.7 ± 2.7 | 62.6 ± 1.5 | 60.4 ± 2.2 | 
9 | 252 ± 4.6 |  | CC(C)(C)C(=O)N[C@H](COCc1ccccc1)C(=O)NCCNC(=O)/C(C#N)=C/c1ccc(O)cc1 [Compound 5h, (R,E) - N - (2-(2-pivalamido-3-(benzyloxy)propanamido)ethyl)-2-cyano-3-(4-hydroxyphenyl)acrylamide] | 50.3 ± 3.2 | 45.2 ± 1.3 | 42.8 ± 1.1 | 
10 | 273 ± 4.6 |  | CC(C)(C)C(=O)N[C@@H](COCc1ccccc1)C(=O)NCCNC(=O)/C(C#N)=C/c1ccc(O)cc1 [Compound 5g, (S,E) - N - (2-(2-pivalamido-3-(benzyloxy)propanamido)ethyl)-2-cyano-3-(4-hydroxyphenyl)acrylamide] | 38.3 ± 2.6 | 33.9 ± 1.4 | 30.4 ± 3.7 | 
11 | 404 ± 7 | 175 to 177 | CC(=O)N[C@H](COCc1ccccc1)C(=O)NCCNC(=O)/C(C#N)=C/c1ccc(O)cc1 [Compound 5d, (R,E) – N - (2 - (2-acetamido-3-(benzyloxy)propanamido)ethyl)-2-cyano-3-(4-hydroxyphenyl)acrylamide] | 38.3 ± 1.9 | 35.4 ± 3.2 | 33.3 ± 4.1 | 
